Measurements taken from US20240133870A1, “COMBINED TREATMENT FOR CANCER” (Yeda Research and Development Co. Ltd., priority 2021, published 2024).

Experiments:
[1] = tested on: G361 melanoma cells; assay: FGFR inhibitor abrogation of factor-mediated resistance (GFP, rScore); assay type: cell-based, human; details: vemurafenib 2 μM; EMAPII or AIMP1 10 ng/ml; FGFR inhibitor 0.5 μM
Protocol: PLX4720—BRAFi, 2 μM; PD184352—MEKi, 1 μM, EMAPII—50 ng/ml. P-value of the difference between GFP(drug)/GFP(no-treatment) and GFP(drug+EMAPII)/GFP(no-treatment), at day 7, was calculated by two-sided t-test. ** p<0.01, *** p<0.001. Average rScore (+/−SE) was calculated from at least four different experiments. […] A total of 69 experiments are shown. […] The effect of FGF2 (10 ng/ml), EMAPII (10 ng/ml) or AIMP1 (10 ng/ml) on G361 μmelanoma cells treated with vemurafenib (2 μM) was measured with or without the FGFR inhibitor PD17307 (0.5 μM). Data represent an average of 4 to 8 experiments. P-value was calculated by two-sided t-test. *** p<0.001. Error bars represent standard error. […] 18 putative AIMP1 receptors were knocked down by shRNAs (on average 6.8 shRNAs/gene) in the G361 cell line. shRNAs toward luciferase served as a negative control. The effect of AIMP1 (50 ng/ml) on the sensitivity to PLX4720 (2 μM) was tested in all knockdown clones and normalized to no-shRNA control. Results represent the average of 3-8 experiments. Error bars represent standard error. P-values were calculated by two-sided t-test relative to luciferase. * p<0.05, Q-value=0.1. […] The average of 4 experiments is presented. Error bars represent standard error. P-value was calculated by two-sided t-test. *** p<0.001.

[2] = tested on: SK-MEL-5 BRAF (V600E) melanoma cells; assay: Co-culture of stroma (WI-38 or HS-5) and cancer cells; assay type: cell-based, human; details: co-culture with WI-38; inhibitor added to vemurafenib
Protocol: SK-MEL-5 BRAF (V600E) melanoma cells were co-cultured with the lung-derived stromal cell line WI-38 or with the bone marrow-derived stromal cell line HS-5 with or without vemurafenib (4 μM). […] Vehicle—DMSO, EGFRi—gefitinib (0.1 μM), EGFRi/HER2i—lapatinib (10 nM), METi—crizotinib (0.1 μM), FGFRi—AZD4547 (50 nM), NFkB/TNFRi—CAPE (10 μM), TGFBRi-LY2109761 (0.5 μM), gp130i—SC144 (1 nM). […] Error bars represent standard error. […] Error bars represent standard error. […] Human BRAF (V600E) melanoma cell lines UACC62 or G361 were used to generate xenograft tumor models in various tissues of nude mice. When tumors reached a volume of 500-700 μmm^3, they were resected, sliced, and cultured ex-vivo in the presence of different drug combinations or DMSO control. Following 4 days of drug treatment, slices were fixed, embedded in paraffin blocks, and subjected to immunohistochemistry, using anti-pERK antibody, or to immuno-fluorescence, using anti-pFGFR1 antibody. BRAFi (vemurafenib, 4 μM), FGFRi (AZD4547, 2 μM). Scale bar represents 50 μm.
Four hours later, the melanoma BRAF (V600E) mutated cell line SK-MEL-5 was seeded on top of the stromal cells at a concentration of 1700 cells per well, or seeded without stroma. […] Concentrations of the inhibitors were based on dose curves with SK-MEL-5. For each inhibitor of potential mechanism of resistance, the maximal concentration with minimal effect (toxicity) on cell growth was selected (Cmax).
To compare rScore value of stroma-mediated resistance with or without a given inhibitor, the rScore values of each inhibitor in the presence of stroma, was calculated. As a reduction in rScore may stem from mere toxicity of the inhibitor, rather than the abrogation of the stroma mediated resistance, each inhibitor rScore was penalized by its toxicity.
rScoreinhibitor=rScoreinhibitor+(rScorestroma−rScoreinhibitor)*tOxicitY(Cmax)inhibitor

[3] = tested on: HCC4006 xenografts; assay: EVOC viability; assay type: cell-based, human; details: crizotinib 8 μM added to erlotinib 4 μM
Protocol: Vehicle—DMSO, METi-crizotinib 8 μM, EGFRi—erlotinib 4 μM. Each black dot in a given treatment condition represents a different tumor. P-values were calculated by one-sided t-test. * P<0.05. Error bars represent standard error. […] Viability percentage is presented per treatment. Scale bar represents 50 μm.
Freshly resected tumors were cut to 250 μm slices (Compresstome, VF-300) in cold Williams-E medium (Sigma, W1878). Slices were placed on the surface of titanium meshes which were pre-incubated in DMEM/F-12 (HAM) (01-170-1A, BI) supplemented with 10% FCS, 100 units/ml Penicillin and Streptomycin, 2 μmM Glutamine, […], and 2.5 μg/ml Amphotericin B (sigma, A2942), at 37° C. and 80% oxygen/5% CO2. […]
Immunohistochemistry of EVOC tissues: To assess response therapy, 4 μm FFPE tissue slices were stained with H&E, or with specific antibodies: anti-pERK (Cell Signaling, #4370) followed by HRP conjugated secondary antibody (anti-Rabbit HRP, ZUC032, ZytoChem) and DAB staining (DAB substrate kit, DAB057, ZytoChem). […] All slides were scanned using the Pannoramic SCAN II (3[…]) and analyzed by a pathologist. The percentage of viable cancer cells was morphologically assessed on H&E stained sections by a pathologist as the ratio between viable cancer cell area and total cancer area (viable cancer cells plus necrotic cancer cells).

[4] = tested on: human NSCLC tumor biopsy; assay: EVOC of NSCLC patient biopsies, viability; assay type: cell-based; details: treatment-naïve patient; in combination with osimertinib 4 μM
Text: Error bars represent standard error. […] Scale bar represents 50 μm. […] Error bars represent standard error. […] Scale bar represents 50 μm.
Scale bar represents 50 μm. […] Scale bar represents 50 μm. […] Scale bar represents 50 μm.

[5] = tested on: H1975 xenografts; assay: EVOC viability; assay type: cell-based, human; details: added to afatinib 3-4 μM
Protocol: Vehicle—DMSO, FGFRi—AZD4547 2-4 μM, INSRi—linsitinib 2 μM, METi—crizotinib 2-4 μM, EGFRi—afatinib 3-4 μM. Each black dot in a given treatment condition represents a different tumor. P-values were calculated by two-sided t-test. ** P<0.01, * P<0.05. Error bars represent standard error. […] Viability percentage is given per treatment combination. Scale bar represents 50 μm. […] Error bars represent standard error. […] EGFRi—gefitinib 1.6 μM, FGFRi—AZD4547 0.2 μM. The percentage of viable cancer cells was morphologically assessed on H&E stained sections by a pathologist as the ratio between viable cancer cell area and total cancer area (viable cancer cells plus necrotic cancer cells). […] Viability score was calculated based on the entire field of view. […]
Immunohistochemistry of EVOC tissues: To assess response therapy, 4 μm FFPE tissue slices were stained with H&E, or with specific antibodies: anti-pERK (Cell Signaling, #4370) followed by HRP conjugated secondary antibody (anti-Rabbit HRP, ZUC032, ZytoChem) and DAB staining (DAB substrate kit, DAB057, ZytoChem). […] All slides were scanned using the Pannoramic SCAN II (3[sequence]) and analyzed by a pathologist. The percentage of viable cancer cells was morphologically assessed on H&E stained sections by a pathologist as the ratio between viable cancer cell area and total cancer area (viable cancer cells plus necrotic cancer cells).

| Structure (SMILES) | abrogation of EMAPII/AIMP1-mediated resistance [1] | abrogation of stroma-mediated resistance to vemurafenib [2] | innate resistance to EGFRi [3] | cancer cell viability [4] | cell viability [5] |
| --- | --- | --- | --- | --- | --- |
| CCN(CC)CCCCNc1ncc2cc(-c3cc(OC)cc(OC)c3)c(NC(=O)NC(C)(C)C)nc2n1 [PD17307] | abrogates EMAPII/AIMP1-mediated resistance | – | – | – | – |
| C[C@@H](Oc1cc(-c2cnn(C3CCNCC3)c2)cnc1N)c1c(Cl)ccc(F)c1Cl [crizotinib] | – | abrogated the resistance effect of WI-38 | reduced innate resistance to the EGFRi erlotinib | synergistic killing effect | significantly reduced cell viability |
